# According to ChEMBL document CHEMBL4346705, “(±)-trans-Dihydronarciclasine and (±)-trans-dihydrolycoricidine analogues modified in their ring A: Evaluation of their anticancer activity and a SAR study” (2019):
# Legend:
# Type in all cases: functional
# RXF 393 = test: Cytotoxicity against human RXF393 cells assessed as growth inhibition after 48 hrs by sulforhodamine B assay; conditions: RXF 393, 48 h
# ACHN = test: Cytotoxicity against human ACHN cells assessed as growth inhibition after 48 hrs by sulforhodamine B assay
# MDA-MB-435 = test: Cytotoxicity against human MDA-MB-435 cells assessed as growth inhibition after 48 hrs by sulforhodamine B assay; conditions: MDA-MB-435, 48 h
# DU-145 = test: Cytotoxicity against human DU145 cells assessed as growth inhibition after 48 hrs by sulforhodamine B assay; conditions: DU-145, 48 h
# HOP-92 = test: Cytotoxicity against human HOP92 cells assessed as growth inhibition after 48 hrs by sulforhodamine B assay; conditions: HOP-92, 48 h
# A498 = test: Cytotoxicity against human A498 cells assessed as growth inhibition after 48 hrs by sulforhodamine B assay; conditions: A498, 48 h
# NCI-H23 = test: Cytotoxicity against human NCI-H23 cells assessed as growth inhibition after 48 hrs by sulforhodamine B assay; conditions: NCI-H23, 48 h; for CC50: read-out: LC50 (the source's name)
# TK-10 = test: Cytotoxicity against human TK10 cells assessed as growth inhibition after 48 hrs by sulforhodamine B assay; conditions: TK-10, 48 h
# SK-OV-3 = test: Cytotoxicity against human SKOV3 cells assessed as growth inhibition after 48 hrs by sulforhodamine B assay; conditions: SK-OV-3, 48 h; for CC50: read-out: LC50 (the source's name)
# NCI-H226 = test: Cytotoxicity against human NCI-H226 cells assessed as growth inhibition after 48 hrs by sulforhodamine B assay; conditions: NCI-H226, 48 h
# MOLT-4 = test: Cytotoxicity against human MOLT4 cells assessed as growth inhibition after 48 hrs by sulforhodamine B assay; conditions: MOLT-4, 48 h; for CC50: read-out: LC50 (the source's name)
# Malme-3M = test: Cytotoxicity against human MALME-3M cells assessed as growth inhibition after 48 hrs by sulforhodamine B assay
# UACC-62 = test: Cytotoxicity against human UACC62 cells assessed as growth inhibition after 48 hrs by sulforhodamine B assay; conditions: UACC-62, 48 h
# RPMI-8226 = test: Cytotoxicity against human RPMI8226 cells assessed as growth inhibition after 48 hrs by sulforhodamine B assay; conditions: RPMI-8226, 48 h
# CAKI-1 = test: Cytotoxicity against human Caki1 cells assessed as growth inhibition after 48 hrs by sulforhodamine B assay; conditions: CAKI-1, 48 h; for CC50: read-out: LC50 (the source's name)
# SW-620 = test: Cytotoxicity against human SW620 cells assessed as growth inhibition after 48 hrs by sulforhodamine B assay; conditions: SW-620, 48 h
# HT-29 = test: Cytotoxicity against human HT-29 cells assessed as growth inhibition after 48 hrs by sulforhodamine B assay; conditions: HT-29, 48 h
# T47D = test: Cytotoxicity against human T47D cells assessed as growth inhibition after 48 hrs by sulforhodamine B assay
# EKVX = test: Cytotoxicity against human EKVX cells assessed as growth inhibition after 48 hrs by sulforhodamine B assay; conditions: for CC50: read-out: LC50 (the source's name)
# UO-31 = test: Cytotoxicity against human UO31 cells assessed as growth inhibition after 48 hrs by sulforhodamine B assay; conditions: UO-31, 48 h
# OVCAR-5 = test: Cytotoxicity against human OVCAR5 cells assessed as growth inhibition after 48 hrs by sulforhodamine B assay; conditions: OVCAR-5, 48 h
# SR = test: Cytotoxicity against human SR cells assessed as growth inhibition after 48 hrs by sulforhodamine B assay; conditions: for CC50: read-out: LC50 (the source's name)
# OVCAR-4 = test: Cytotoxicity against human OVCAR4 cells assessed as growth inhibition after 48 hrs by sulforhodamine B assay; conditions: OVCAR-4, 48 h
# IGROV-1 = test: Cytotoxicity against human IGROV1 cells assessed as growth inhibition after 48 hrs by sulforhodamine B assay; conditions: IGROV-1, 48 h
# A549 = test: Cytotoxicity against human A549 cells assessed as growth inhibition after 48 hrs by sulforhodamine B assay; conditions: A549, 48 h; for CC50: read-out: LC50 (the source's name)
# HCC 2998 = test: Cytotoxicity against human HCC2998 cells assessed as growth inhibition after 48 hrs by sulforhodamine B assay; conditions: HCC 2998, 48 h
# K562 = test: Cytotoxicity against human K562 cells assessed as growth inhibition after 48 hrs by sulforhodamine B assay; conditions: K562, 48 h; for CC50: read-out: LC50 (the source's name)
# SF-539 = test: Cytotoxicity against human SF539 cells assessed as growth inhibition after 48 hrs by sulforhodamine B assay; conditions: SF-539, 48 h
# SK-MEL-2 = test: Cytotoxicity against human SK-MEL-2 cells assessed as growth inhibition after 48 hrs by sulforhodamine B assay; conditions: SK-MEL-2, 48 h
# SN12C = test: Cytotoxicity against human SN12C cells assessed as growth inhibition after 48 hrs by sulforhodamine B assay; conditions: for CC50: read-out: LC50 (the source's name)
# OVCAR-8 = test: Cytotoxicity against human OVCAR8 cells assessed as growth inhibition after 48 hrs by sulforhodamine B assay; conditions: OVCAR-8, 48 h
# SNB-19 = test: Cytotoxicity against human SNB19 cells assessed as growth inhibition after 48 hrs by sulforhodamine B assay; conditions: SNB-19, 48 h
# SF-295 = test: Cytotoxicity against human SF295 cells assessed as growth inhibition after 48 hrs by sulforhodamine B assay; conditions: SF-295, 48 h; for CC50: read-out: LC50 (the source's name)
structure (smiles),measurement,setting,value
O=C1NC2C(CC(O)C(O)C2O)c2cc3c(c(O)c21)OCO3 (racemic),GI50,RXF 393,118 nM
same,TGI,RXF 393,510 nM
same,GI50,ACHN,97.9 nM
same,TGI,ACHN,750 nM
same,GI50,MDA-MB-435,68.1 nM
same,TGI,MDA-MB-435,510 nM
same,GI50,DU-145,56.7 nM
same,TGI,DU-145,620 nM
same,GI50,HOP-92,49 nM
same,TGI,HOP-92,570 nM
same,GI50,A498,200 nM
same,TGI,A498,540 nM
same,GI50,NCI-H23,74.4 nM
same,TGI,NCI-H23,520 nM
same,CC50,NCI-H23,> 100000 nM
same,GI50,TK-10,221 nM
same,TGI,TK-10,1680 nM
same,GI50,SK-OV-3,94.9 nM
same,TGI,SK-OV-3,1040 nM
same,CC50,SK-OV-3,> 100000 nM
same,GI50,NCI-H226,61.7 nM
same,TGI,NCI-H226,590 nM
same,GI50,MOLT-4,63.6 nM
same,CC50,MOLT-4,> 100000 nM
same,GI50,Malme-3M,85.9 nM
same,TGI,Malme-3M,390 nM
same,GI50,UACC-62,136 nM
same,TGI,UACC-62,630 nM
same,GI50,RPMI-8226,229 nM
same,TGI,RPMI-8226,630 nM
same,GI50,CAKI-1,91.3 nM
same,TGI,CAKI-1,690 nM
same,CC50,CAKI-1,> 100000 nM
same,GI50,SW-620,54.5 nM
same,TGI,SW-620,810 nM
same,GI50,HT-29,89.6 nM
same,TGI,HT-29,1000 nM
same,GI50,T47D,52.9 nM
same,TGI,T47D,670 nM
same,GI50,EKVX,145 nM
same,TGI,EKVX,1060 nM
same,CC50,EKVX,> 100000 nM
same,GI50,UO-31,100 nM
same,TGI,UO-31,1090 nM
same,GI50,OVCAR-5,170 nM
same,TGI,OVCAR-5,1050 nM
same,GI50,SR,52.2 nM
same,TGI,SR,> 100000 nM
same,CC50,SR,> 100000 nM
same,GI50,OVCAR-4,55.6 nM
same,TGI,OVCAR-4,480 nM
same,GI50,IGROV-1,163 nM
same,TGI,IGROV-1,1110 nM
same,GI50,A549,139 nM
same,TGI,A549,1160 nM
same,CC50,A549,> 100000 nM
same,GI50,HCC 2998,57.2 nM
same,TGI,HCC 2998,330 nM
same,GI50,K562,52.9 nM
same,TGI,K562,> 100000 nM
same,CC50,K562,> 100000 nM
same,GI50,SF-539,81.9 nM
same,TGI,SF-539,460 nM
same,GI50,SK-MEL-2,56.1 nM
same,TGI,SK-MEL-2,250 nM
same,GI50,SN12C,69.3 nM
same,TGI,SN12C,800 nM
same,CC50,SN12C,> 100000 nM
same,GI50,OVCAR-8,57.6 nM
same,TGI,OVCAR-8,1060 nM
same,GI50,SNB-19,46.6 nM
same,TGI,SNB-19,690 nM
same,GI50,SF-295,115 nM
same,TGI,SF-295,770 nM
same,CC50,SF-295,> 100000 nM
O=C1NC2C(CC(O)C(O)C2O)c2cc3c(c(O)c21)OCCO3 (racemic),GI50,RXF 393,179 nM
same,LC50 (50% lethal concentration),RXF 393,6300 nM
same,TGI,RXF 393,710 nM
same,GI50,ACHN,297 nM
same,LC50 (concentration killing 50% of cells),ACHN,7730 nM
same,TGI,ACHN,1480 nM
same,GI50,MDA-MB-435,265 nM
same,LC50 (concentration killing 50% of cells),MDA-MB-435,13300 nM
same,TGI,MDA-MB-435,1170 nM
same,GI50,DU-145,239 nM
same,LC50,DU-145,> 100000 nM
same,TGI,DU-145,860 nM
same,GI50,HOP-92,110 nM
same,LC50,HOP-92,> 100000 nM
same,TGI,HOP-92,1010 nM
same,GI50,A498,300 nM
same,LC50 (concentration killing 50% of cells),A498,6860 nM
same,TGI,A498,1170 nM
same,GI50,NCI-H23,214 nM
same,TGI,NCI-H23,870 nM
same,CC50,NCI-H23,> 100000 nM
same,GI50,TK-10,563 nM
same,LC50,TK-10,> 100000 nM
same,TGI,TK-10,3870 nM
same,GI50,SK-OV-3,496 nM
same,TGI,SK-OV-3,4030 nM
same,CC50,SK-OV-3,> 100000 nM
same,GI50,NCI-H226,220 nM
same,LC50,NCI-H226,79800 nM
same,TGI,NCI-H226,730 nM
same,GI50,MOLT-4,179 nM
same,TGI,MOLT-4,10100 nM
same,CC50,MOLT-4,> 100000 nM
same,GI50,Malme-3M,190 nM
same,LC50,Malme-3M,5200 nM
same,TGI,Malme-3M,710 nM
same,GI50,UACC-62,261 nM
same,LC50,UACC-62,13000 nM
same,TGI,UACC-62,1380 nM
same,GI50,RPMI-8226,265 nM
same,LC50,RPMI-8226,> 100000 nM
same,TGI,RPMI-8226,1140 nM
same,GI50,CAKI-1,586 nM
same,TGI,CAKI-1,5470 nM
same,CC50,CAKI-1,> 100000 nM
same,GI50,SW-620,222 nM
same,LC50,SW-620,> 100000 nM
same,TGI,SW-620,1220 nM
same,GI50,HT-29,299 nM
same,LC50 (concentration causing 50% net cell kill),HT-29,96400 nM
same,TGI,HT-29,1330 nM
same,GI50,T47D,143 nM
same,LC50 (concentration killing 50% of cells),T47D,> 100000 nM
same,TGI,T47D,900 nM
same,GI50,EKVX,257 nM
same,TGI,EKVX,1270 nM
same,CC50,EKVX,> 100000 nM
same,GI50,UO-31,316 nM
same,LC50,UO-31,> 100000 nM
same,TGI,UO-31,2460 nM
same,GI50,OVCAR-5,361 nM
same,LC50,OVCAR-5,> 100000 nM
same,TGI,OVCAR-5,2860 nM
same,GI50,SR,314 nM
same,TGI,SR,36800 nM
same,CC50,SR,> 100000 nM
same,GI50,OVCAR-4,209 nM
same,LC50 (concentration causing 50% net cell kill),OVCAR-4,> 100000 nM
same,TGI,OVCAR-4,820 nM
same,GI50,IGROV-1,343 nM
same,LC50,IGROV-1,> 100000 nM
same,TGI,IGROV-1,2680 nM
same,GI50,A549,355 nM
same,TGI,A549,8530 nM
same,CC50,A549,> 100000 nM
same,GI50,HCC 2998,222 nM
same,LC50 (concentration killing 50% of cells),HCC 2998,6310 nM
same,TGI,HCC 2998,730 nM
same,GI50,K562,126 nM
same,TGI,K562,10700 nM
same,CC50,K562,> 100000 nM
same,GI50,SF-539,228 nM
same,LC50,SF-539,12700 nM
same,TGI,SF-539,740 nM
same,GI50,SK-MEL-2,245 nM
same,TGI,SK-MEL-2,930 nM
same,GI50,SN12C,141 nM
same,TGI,SN12C,890 nM
same,CC50,SN12C,> 100000 nM
same,GI50,OVCAR-8,311 nM
same,LC50,OVCAR-8,> 100000 nM
same,TGI,OVCAR-8,5890 nM
same,GI50,SNB-19,155 nM
same,LC50,SNB-19,> 100000 nM
same,TGI,SNB-19,1030 nM
same,GI50,SF-295,357 nM
same,TGI,SF-295,2640 nM
same,CC50,SF-295,> 100000 nM
